Reference: patent US5432192A, “Tricyclic compounds and method for treating allergic diseases” (Hokuriku Seiyaku Co., Ltd., priority 1991, dated 1995)

Experiments:
[1] = tested on: PCA reaction in passively sensitized male Wistar rats; assay: Anti-allergic effect (Inhibitory effect on PCA reaction); assay type: in vivo, rat (male Wistar); conditions: Rattus norvegicus, po, 1 h, 1 mg/kg orally, antigen challenge after one hour, read-out: Inhibition rate (%) of PCA reaction
Procedure: 0.1 ml of anti-dinitrophenylated ascaris extract (DNP-As) rat IgE serum was injected intracutaneously to the back of male Wistar rats (6 weeks of age). After 48 hours, a solution of 1% Evans blue in physiological saline containing 1 mg of an antigen (DNP-As) was administered from caudal vein. After 30 minutes, the animals were exsanguinated and dyes in blue spots were extracted with 1N KOH, and then the amounts of the dyes were measured by absorbance at 620 nm. After the passively sensitized rats described above were fasted for 16 to 18 hours, 1 mg/kg of each test compound was administered orally to the rats, and then the rats were challenged with antigen after one hour. The amounts of dyes in the test animals were compared with those of the control to obtain the inhibition rate (%) of PCA reaction.

[2] = target: T1, Histamine dose-response in isolated ileum from male Hartley guinea-pigs (Cavia porcellus, UniProt P31389); assay: Anti-histaminic effect, isolated guinea-pig ileum (KB by Furchgott method); set-up: species or system guinea-pig (male Hartley); conditions: dissociation constant KB (M) of antagonist vs histamine; test drug applied 30 minutes before; 28° C.; read-out: -Log KB (anti-histaminic effect) (converted)
T1 construct: The ileum was isolated from male Hartley guinea-pigs; from tissue; host or cells: isolated ileum of male Hartley guinea-pigs
Procedure: (§1) The ileum was isolated from male Hartley guinea-pigs (5 to 8 weeks of age). The preparation was suspended in a bath containing Locke-Ringer nutritional solution (NaCl: 154 mM, KCl: 5.6 mM, CaCl2 .2H2 O: 2.2 mM, MgCl2.6H2 O: 2.1 mM, NaHCO3 : 5.9 mM, glucose: 2.8 mM) bubbled with 95% O2 +5% CO2 mixed gas at 28° C., and then 0.5 g weight was loaded and tention through isotonic transducer was recorded using a recorder. Histamine was cumulatively applied 3 times at intervals of 40 minutes, and the dose-response curve of the third experiment, for which a test drug was applied 30 minutes before the experiment, was compared with the result of the second experiment as a reference. Dissociation constants KB (M) of antagonists were calculated according to the method of Furchgott. From the results shown in Table 1, it is apparent that the compounds of the present invention have excellent anti-histaminic activities.

[3] = target: T2, Acetylcholine dose-response in isolated ileum from male Hartley guinea-pigs (Cavia porcellus, UniProt H0W1Z3); assay: Anti-acetylcholinergic effect, isolated guinea-pig ileum (KB by Furchgott method); set-up: species or system guinea-pig (male Hartley); conditions: dissociation constant KB (M) of antagonist vs acetylcholine; test drug applied 30 minutes before; 28° C.; read-out: -Log KB (anti-acetylcholinergic effect) (converted)
T2 construct: The ileum was isolated from male Hartley guinea-pigs; from tissue; host or cells: isolated ileum of male Hartley guinea-pigs
Procedure: as §1, with “CaCl2.H2” for “CaCl2 .2H2”, “MgCl2. 6H2” for “MgCl2.6H2”, “Acetylcholine” for “Histamine”, “3,” for “1,”, “almost no anti-acetylcholinergic” for “excellent anti-histaminic”

[4] = known adverse reactions, background art; cited from earlier work

T1 sequence (P31389 whole entry): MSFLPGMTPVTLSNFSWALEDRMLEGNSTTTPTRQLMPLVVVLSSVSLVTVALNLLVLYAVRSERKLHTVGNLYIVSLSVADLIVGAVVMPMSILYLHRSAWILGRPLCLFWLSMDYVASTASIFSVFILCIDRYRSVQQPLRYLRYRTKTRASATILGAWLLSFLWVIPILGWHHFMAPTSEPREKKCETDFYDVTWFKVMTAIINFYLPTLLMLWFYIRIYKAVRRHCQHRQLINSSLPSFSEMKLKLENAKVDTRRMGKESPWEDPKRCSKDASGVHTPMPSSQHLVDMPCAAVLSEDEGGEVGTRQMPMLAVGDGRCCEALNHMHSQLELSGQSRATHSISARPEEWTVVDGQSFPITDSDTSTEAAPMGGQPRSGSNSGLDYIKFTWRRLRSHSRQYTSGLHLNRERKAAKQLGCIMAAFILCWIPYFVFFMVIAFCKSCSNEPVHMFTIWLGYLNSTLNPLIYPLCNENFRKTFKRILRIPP
T2 sequence (H0W1Z3 1-590): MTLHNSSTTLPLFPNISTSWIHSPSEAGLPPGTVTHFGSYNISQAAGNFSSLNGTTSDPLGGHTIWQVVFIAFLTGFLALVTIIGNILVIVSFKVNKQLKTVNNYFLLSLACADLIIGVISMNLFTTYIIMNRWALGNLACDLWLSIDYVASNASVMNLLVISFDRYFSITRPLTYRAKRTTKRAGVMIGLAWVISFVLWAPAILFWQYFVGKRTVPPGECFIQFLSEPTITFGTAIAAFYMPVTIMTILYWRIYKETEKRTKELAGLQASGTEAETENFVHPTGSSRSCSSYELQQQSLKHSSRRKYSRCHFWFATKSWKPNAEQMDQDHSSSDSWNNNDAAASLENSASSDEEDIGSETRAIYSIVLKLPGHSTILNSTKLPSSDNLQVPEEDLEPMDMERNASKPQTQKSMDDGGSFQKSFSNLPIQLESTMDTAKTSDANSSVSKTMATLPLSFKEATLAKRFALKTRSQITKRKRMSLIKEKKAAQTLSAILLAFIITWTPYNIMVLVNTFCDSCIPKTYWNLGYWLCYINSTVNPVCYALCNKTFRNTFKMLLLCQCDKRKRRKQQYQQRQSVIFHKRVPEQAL

Row | Structure (SMILES) | inhibition at 1 mg/kg [1] | Kb [2] | Kb [3] | adverse reactions [4]
1 | CN(CCC=C1c2ccccc2C=Cc2ccccc21)CCC(=O)O [Example 14, 3-[N-[3-(5H-Dibenzo[a,d]cyclohepten-5-ylidene)propyl]-N-methylamino]propionic Acid] | 72% | 6.92e-09 M | 1.51e-05 M | 
2 | CN(CCC=C1c2ccccc2C=Cc2ccccc21)CCCC(=O)O [Example 15, 4-[N-[3-(5H-Dibenzo[a,d]cyclohepten-5-ylidene)propyl]-N-methylamino]butyricAcid] |  | 4.27e-09 M | 2.57e-06 M | 
3 | CN(CCC=C1c2ccccc2C=Cc2ccccc21)CC(=O)O [Example 16, [N-[3-(5H-Dibenzo[a,d]cyclohepten-5-ylidene)propyl]-N-methylamino]acetic Acid] |  | 3.16e-08 M | 1.26e-05 M | 
4 | CN(CCC=C1c2ccccc2C=Cc2ccccc21)CCCCC(=O)O [Example 17, 5-[N-[3-(5H-Dibenzo[a,d]cyclohepten-5-ylidene)propyl]-N-methylamino]valericAcid] | 72% | 6.17e-09 M | 9.12e-07 M | 
5 | CN(CCC=C1c2ccccc2C=Cc2ccccc21)CCCCCC(=O)O [Example 18, 6-[N-[3-(5H-Dibenzo[a,d]cyclohepten-5-ylidene)propyl]-N-methylamino]hexanoic Acid] | 50% | 1.2e-08 M | 5.5e-07 M | 
6 | CN(CCC=C1c2ccccc2COc2ccccc21)CC(=O)O [Example 19, [N-[3-(Dibenz[b,e]oxepin-11(6H)-ylidene)propyl]-N-methylamino]acetic Acid] |  | 1.55e-08 M | 4.9e-05 M | 
7 | CN(CCC=C1c2ccccc2COc2ccccc21)CCC(=O)O [Example 20, 3-[N-[3-(Dibenz[b,e]oxepin-11(6H)-ylidene)propyl]-N-methylamino]propionic Acid] | 69% | 3.09e-09 M | 7.08e-06 M | 
8 | CN(CCC=C1c2ccccc2COc2ccccc21)CCCC(=O)O [Example 21, 4-[N-[3-(Dibenz[b,e]oxepin-11(6H)-ylidene)propyl]-N-methylamino]butyric Acid] |  | 3.47e-09 M | 7.24e-06 M | 
9 | CN(CCC=C1c2ccccc2COc2ccccc21)CCCCC(=O)O [Example 22, 5-[N-[3-(Dibenz[b,e]oxepin-11(6H)-ylidene)propyl]-N-methylamino]valeric Acid] | 62% | 4.37e-09 M | 1e-05 M | 
10 | CN(CCC=C1c2ccccc2COc2ccccc21)CCCCCC(=O)O [Example 23, 6-[N-[3-(Dibenz[b,e]oxepin-11(6H)-ylidene)propyl]-N-methylamino]hexanoic Acid] |  | 7.76e-09 M | 3.16e-06 M | 
11 | CN(C)CCC=C1c2ccccc2C=Cc2ccccc21 [cyclobenzaprine, Cyclobenzaprine, reference compound] | 14% |  | 7.59e-09 M | sleepiness, dizziness, fatigue, thirst, nausea, constipation, and dyspepsia
12 | CN(C)CCC=C1c2ccccc2COc2ccccc21 [doxepin, Doxepin, reference compound] | 21% |  | 5.89e-08 M | sleepiness, thirst, and constipations
